The results in this text go back to publication PMC3585822, “The ancestral activation promiscuity of ADP-glucose pyrophosphorylases from oxygenic photosynthetic organisms” (BMC Evolutionary Biology, 2013).

Holding throughout (experiment): ADP-[…]Glc synthesis from […]Glc1P, modified Hill fit
One assay has as its system T1, OtaS.
T1 construct: recombinant small subunit homotetramer from E. coli AC70R1-504, purified; plasmid pMAB5 or pMAB6
The format is biochemical, Ostreococcus tauri. Particulars: allosteric activator; 1 mM ATP, 1 mM Glc1P, 7 mM MgCl2, pH 8.0, 37 °C; read-out: A0.5.

The subject of assay [1] is T2, OtaS/OtaL.
T2 construct: recombinant S2L2 heterotetramer co-expressed in E. coli AC70R1-504, purified
The format is biochemical, Ostreococcus tauri. The conditions noted are these: allosteric activator; 1 mM ATP, 1 mM Glc1P, 7 mM MgCl2, pH 8.0, 37 °C; non-catalytic OtaL with wild-type OtaS; read-out: A0.5.

In assay [2] the test system is T2, OtaS/OtaL. The format is biochemical, Ostreococcus tauri. The conditions noted are these: allosteric activator; 1 mM ATP, 1 mM Glc1P, 7 mM MgCl2, pH 8.0, 37 °C; read-out: A0.5.
Assay [3] has as its system T2, OtaS/OtaL. The format is biochemical, Ostreococcus tauri. Particulars: allosteric activator; 1 mM ATP, 1 mM Glc1P, 7 mM MgCl2, pH 8.0, 37 °C; non-catalytic OtaS with wild-type OtaL; read-out: A0.5.
Assay [4] addresses T3, ADP-Glc PPase from Anabaena (Nostoc sp. PCC 7120 = FACHB-418, UniProt P30521).
T3 construct: gene glgC; recombinant homotetramer from E. coli AC70R1-504, purified
T3 sequence (P30521 1-429): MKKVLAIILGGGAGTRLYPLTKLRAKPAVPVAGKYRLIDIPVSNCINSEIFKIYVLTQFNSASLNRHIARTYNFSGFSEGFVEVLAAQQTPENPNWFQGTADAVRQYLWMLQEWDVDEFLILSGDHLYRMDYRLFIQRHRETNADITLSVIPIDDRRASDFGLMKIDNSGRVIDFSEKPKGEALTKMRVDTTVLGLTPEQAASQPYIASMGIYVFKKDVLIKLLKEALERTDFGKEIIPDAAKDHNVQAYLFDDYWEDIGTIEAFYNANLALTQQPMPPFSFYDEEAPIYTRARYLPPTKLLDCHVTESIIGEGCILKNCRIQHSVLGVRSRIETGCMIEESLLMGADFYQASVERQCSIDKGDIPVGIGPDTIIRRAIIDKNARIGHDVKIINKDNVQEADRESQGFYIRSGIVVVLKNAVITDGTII
The format is biochemical. Particulars: read-out: A0.5.

The mark [5] stands for this setting: allosteric activator, 1 mM ATP, 1 mM Glc1P, 7 mM MgCl2, pH 8.0, 37 °C.

Read-outs that look alike come from different tables or passages of the source.

As for `O=C(O)[C@H](O)COP(=O)(O)O` [3-PGA], the EC50 with OtaS is 1200 µM; in the assay on OtaS/OtaL [1], 67 µM; with OtaS/OtaL [2], 540 µM; in the assay on OtaS/OtaL [3], 3 µM; in assay [4] it was 75 µM.
Turning to `O=P(O)(O)OC[C@H]1OC(O)(COP(=O)(O)O)[C@@H](O)[C@@H]1O` (stereo partly shown) [FBP], the EC50 in the assay with OtaS came to 1100 µM; with OtaS/OtaL [1], 1500 µM; in the assay on OtaS/OtaL [2] it was 1100 µM; in the assay on OtaS/OtaL [3], 8200 µM; in assay [4] (setting [5]) it was 300 µM.
Turning to `O=P(O)(O)OC[C@H]1OC(O)(CO)[C@@H](O)[C@@H]1O` (stereo partly shown) [Fru6P], the figures for the EC50 (in the assay on OtaS; in the assay with OtaS/OtaL [2]; in assay [4] (setting [5])) were 1900 µM, 15000 µM and 1600 µM, respectively.
For `O=P(O)(O)OC[C@H]1OC(O)[C@H](O)[C@@H](O)[C@@H]1O` (stereo partly shown) [Glc6P] the same measures were 10000 µM, 75000 µM and 400 µM.
